# From ChEMBL document CHEMBL4342421, “Current scenario of tetrazole hybrids for antibacterial activity” (Eur J Med Chem, 2019)
# Legend:
# [1] = system: Aspergillus flavus; experiment: Antifungal activity against Aspergillus flavus; assay type: functional
# [2] = system: Aspergillus niger; experiment: Antifungal activity against Aspergillus niger; assay type: functional
# [3] = system: Fusarium oxysporum; experiment: Antifungal activity against Fusarium oxysporum; assay type: functional
# [4] = system: Staphylococcus aureus; experiment: Antimicrobial activity against Staphylococcus aureus ATCC 25923 assessed as zone of inhibition at 100 ug/ml after 24 hrs by disc diffusion method; assay type: functional; conditions: ATCC 25923, 24 h, read-out: IZ
# [5] = system: Klebsiella pneumoniae; experiment: Antimicrobial activity against Klebsiella pneumoniae ATCC 700603 assessed as zone of inhibition at 100 ug/ml after 24 hrs by disc diffusion method; assay type: functional; conditions: ATCC 700603, 24 h, read-out: IZ
# [6] = system: Streptococcus agalactiae; experiment: Antimicrobial activity against Streptococcus agalactiae 55118 assessed as zone of inhibition at 100 ug/ml after 24 hrs by disc diffusion method; assay type: functional; conditions: Streptococcus agalactiae, 55118, 24 h; read-out: IZ
# [7] = system: Escherichia coli; experiment: Antimicrobial activity against Escherichia coli; assay type: functional
# [8] = system: Bacillus subtilis; experiment: Antimicrobial activity against Bacillus subtilis; assay type: functional
# [9] = system: Salmonella typhimurium; experiment: Antimicrobial activity against Salmonella typhimurium; assay type: functional, Salmonella enterica subsp. enterica serovar Typhimurium; conditions: Salmonella enterica
# [10] = system: Priestia megaterium; experiment: Antimicrobial activity against Bacillus megaterium; assay type: functional
# [11] = system: Micrococcus luteus; experiment: Antibacterial activity against Micrococcus luteus; assay type: functional
# [12] = system: SiHa; experiment: Growth inhibition of human SiHa cells; assay type: functional
# [13] = system: MDA-MB-231; experiment: Growth inhibition of human MDA-MB-231 cells; assay type: functional
# [14] = system: PANC-1; experiment: Growth inhibition of human PANC1 cells; assay type: functional
# [15] = system: Pseudomonas aeruginosa; experiment: Antimicrobial activity against Pseudomonas aeruginosa; assay type: functional
# [16] = system: Staphylococcus aureus; experiment: Antimicrobial activity against Staphylococcus aureus; assay type: functional
# [17] = system: Candida albicans; experiment: Antifungal activity against Candida albicans; assay type: functional
# [18] = system: Nakaseomyces glabratus; experiment: Antifungal activity against Candida glabrata; assay type: functional
# [19] = system: Candida tropicalis; experiment: Antifungal activity against Candida tropicalis; assay type: functional
# [20] = system: Bacillus cereus; experiment: Antimicrobial activity against Bacillus cereus; assay type: functional
# [21] = system: Staphylococcus aureus; experiment: Antimicrobial activity against Staphylococcus aureus assessed as zone of inhibition at 250 ug/ml; assay type: functional; conditions: read-out: IZ
# [22] = system: Bacillus cereus; experiment: Antimicrobial activity against Bacillus cereus assessed as zone of inhibition at 250 ug/ml; assay type: functional; conditions: read-out: IZ
# [23] = system: Escherichia coli; experiment: Antimicrobial activity against Escherichia coli assessed as zone of inhibition at 250 ug/ml; assay type: functional; conditions: read-out: IZ
# [24] = system: Pseudomonas aeruginosa; experiment: Antimicrobial activity against Pseudomonas aeruginosa assessed as zone of inhibition at 250 ug/ml; assay type: functional; conditions: read-out: IZ
# [25] = system: Candida albicans; experiment: Antifungal activity against Candida albicans assessed as zone of inhibition at 250 ug/ml; assay type: functional; conditions: read-out: IZ
# [26] = system: Aspergillus niger; experiment: Antifungal activity against Aspergillus niger assessed as zone of inhibition at 250 ug/ml; assay type: functional; conditions: read-out: IZ
# [27] = system: Escherichia coli; experiment: Antimicrobial activity against Escherichia coli assessed as zone of inhibition at 250 ug/ml after 24 hrs by disk diffusion method; assay type: functional; conditions: read-out: IZ
# [28] = system: Proteus vulgaris; experiment: Antimicrobial activity against Proteus vulgaris; assay type: functional
# [29] = system: Streptococcus pneumoniae; experiment: Antimicrobial activity against Streptococcus pneumoniae; assay type: functional
# [30] = system: Proteus mirabilis; experiment: Antimicrobial activity against Proteus mirabilis; assay type: functional
# [31] = system: Prescottella equi; experiment: Antimicrobial activity against Rhodococcus equi; assay type: functional; conditions: Rhodococcus (subgen. Prescottella) equi
# [32] = system: Bacillus thuringiensis; experiment: Antimicrobial activity against Bacillus thuringiensis; assay type: functional
smiles,measurement,setting,value
COc1ccc(-n2cc(-c3nnn[nH]3)nn2)cc1,MIC,[1],100 µg/mL
same,MIC,[2],100 µg/mL
same,MIC,[3],100 µg/mL
COc1nc(N)nc(OC)c1Sc1nnnn1CC1CCCCC1,zone of inhibition at 100 µg/mL,[4],10 to 24 mm
same,zone of inhibition at 100 µg/mL,[5],10 to 24 mm
same,zone of inhibition at 100 µg/mL,[6],10 to 24 mm
COc1cc(-n2nnnc2SCCC(=O)N2CCN(c3cc4c(cc3F)c(=O)c(C(=O)O)cn4C3CC3)CC2)cc(OC)c1OC,MIC,[7],15.6 µg/mL
same,MIC,[8],15.6 µg/mL
same,MIC,[9],15.6 µg/mL
same,MIC,[10],15.6 µg/mL
same,MIC,[11],15.6 µg/mL
same,GI50,[12],≤ 1 µM
same,GI50,[13],≤ 1 µM
same,GI50,[14],≤ 1 µM
CCCCCCn1nnnc1Sc1c(OC)nc(N)nc1OC,zone of inhibition at 100 µg/mL,[4],10 to 24 mm
same,zone of inhibition at 100 µg/mL,[5],10 to 24 mm
same,zone of inhibition at 100 µg/mL,[6],10 to 24 mm
COc1nc(N)nc(OC)c1Sc1nnnn1CC1CC1,zone of inhibition at 100 µg/mL,[4],10 to 24 mm
same,zone of inhibition at 100 µg/mL,[5],10 to 24 mm
same,zone of inhibition at 100 µg/mL,[6],10 to 24 mm
O=C(O)c1cn(C2CC2)c2cc(N3CCN(C(=O)CCSc4nnnn4-c4ccc(C(F)(F)F)cc4)CC3)c(F)cc2c1=O,MIC,[7],15.6 µg/mL
same,MIC,[8],15.6 µg/mL
same,MIC,[9],15.6 µg/mL
same,MIC,[10],15.6 µg/mL
same,MIC,[11],15.6 µg/mL
same,GI50,[12],≤ 1 µM
same,GI50,[13],≤ 1 µM
same,GI50,[14],≤ 1 µM
Cc1cc2c(=O)c(OCc3nnn[nH]3)c(-c3ccc(F)cc3)oc2cc1Cl,MIC,[7],50 to 400 µg/mL
same,MIC,[15],50 to 400 µg/mL
same,MIC,[16],50 to 400 µg/mL
same,MIC,[8],50 to 400 µg/mL
same,MIC,[17],12.5 to 25 µg/mL
same,MIC,[18],12.5 to 25 µg/mL
same,MIC,[19],12.5 to 25 µg/mL
COc1nc(N)nc(OC)c1Sc1nnnn1Cc1ccccc1,zone of inhibition at 100 µg/mL,[4],10 to 24 mm
same,zone of inhibition at 100 µg/mL,[5],10 to 24 mm
same,zone of inhibition at 100 µg/mL,[6],10 to 24 mm
O=C(O)c1cn(C2CC2)c2cc(N3CCN(C(=O)CCSc4nnnn4Cc4ccccc4)CC3)c(F)cc2c1=O,MIC,[7],15.6 µg/mL
same,MIC,[8],15.6 µg/mL
same,MIC,[9],15.6 µg/mL
same,MIC,[10],15.6 µg/mL
same,MIC,[11],15.6 µg/mL
same,GI50,[12],≤ 1 µM
same,GI50,[13],≤ 1 µM
same,GI50,[14],≤ 1 µM
O=C(O)c1cn(C2CC2)c2cc(N3CCN(C(=O)CCSc4nnnn4-c4ccc(Br)cc4)CC3)c(F)cc2c1=O,MIC,[7],15.6 µg/mL
same,MIC,[8],15.6 µg/mL
same,MIC,[9],15.6 µg/mL
same,MIC,[10],15.6 µg/mL
same,MIC,[11],15.6 µg/mL
same,GI50,[12],≤ 1 µM
same,GI50,[13],≤ 1 µM
same,GI50,[14],≤ 1 µM
Clc1ccc(-c2nnnn2-c2nc3ccccc3s2)cc1,MIC,[7],50 to 100 µg/mL
same,MIC,[15],50 to 100 µg/mL
same,MIC,[16],50 to 100 µg/mL
same,MIC,[20],50 to 100 µg/mL
same,MIC,[17],50 to 100 µg/mL
same,zone of inhibition at 250 µg/mL,[21],16 to 26 mm
same,zone of inhibition at 250 µg/mL,[22],16 to 26 mm
same,zone of inhibition at 250 µg/mL,[23],16 to 26 mm
same,zone of inhibition at 250 µg/mL,[24],16 to 26 mm
same,zone of inhibition at 250 µg/mL,[25],16 to 26 mm
same,zone of inhibition at 250 µg/mL,[26],16 to 26 mm
same,MIC,[2],50 to 100 µg/mL
same,zone of inhibition at 250 µg/mL,[27],18 to 26 mm
O=[N+]([O-])c1cccc(-c2nnnn2-c2nc3ccccc3s2)c1,MIC,[7],50 to 100 µg/mL
same,MIC,[15],50 to 100 µg/mL
same,MIC,[16],50 to 100 µg/mL
same,MIC,[20],50 to 100 µg/mL
same,MIC,[17],50 to 100 µg/mL
same,zone of inhibition at 250 µg/mL,[21],16 to 26 mm
same,zone of inhibition at 250 µg/mL,[22],16 to 26 mm
same,zone of inhibition at 250 µg/mL,[23],16 to 26 mm
same,zone of inhibition at 250 µg/mL,[24],16 to 26 mm
same,zone of inhibition at 250 µg/mL,[25],16 to 26 mm
same,zone of inhibition at 250 µg/mL,[26],16 to 26 mm
same,MIC,[2],50 to 100 µg/mL
same,zone of inhibition at 250 µg/mL,[27],18 to 26 mm
Clc1ccc(COC(Cn2ccnc2)c2ccc(Cl)cc2Cl)c(Cl)c1 (stereo not drawn) [MICONAZOLE],MIC,[17],12.5 to 800 µg/mL
same,MIC,[18],12.5 to 800 µg/mL
same,MIC,[19],12.5 to 800 µg/mL
Cc1nnc(SCC2=C(C(=O)O)N3C(=O)[C@@H](NC(=O)Cn4cnnn4)[C@H]3SC2)s1 [CEFAZOLIN],MIC,[8],0.063 to 8 µg/mL
same,MIC,[28],0.063 to 8 µg/mL
same,MIC,[9],0.063 to 8 µg/mL
same,MIC,[29],0.063 to 8 µg/mL
same,MIC,[30],0.063 to 8 µg/mL
same,MIC,[31],0.063 to 8 µg/mL
same,MIC,[32],0.063 to 8 µg/mL
O=C(O)c1cn(C2CC2)c2cc(N3CCN(C(=O)CCSc4nnnn4-c4ccc(F)c(F)c4F)CC3)c(F)cc2c1=O,MIC,[7],15.6 µg/mL
same,MIC,[8],15.6 µg/mL
same,MIC,[9],15.6 µg/mL
same,MIC,[10],15.6 µg/mL
same,MIC,[11],15.6 µg/mL
same,GI50,[12],≤ 1 µM
same,GI50,[13],≤ 1 µM
same,GI50,[14],≤ 1 µM
